Values quoted from earlier work, collected in patent US20100003322A1, “ENTERIC COATED HYDROPHOBIC MATRIX FORMULATION” (priority 2008, published 2010).
Counter-ions that a name gives are not always drawn.

Details: for solubility as described in the package insert: water, for gabapentin also basic and acidic aqueous solutions; for water solubility: volume of water that dissolves 1 g: 1 g of drug in the stated ml of water

Structure (SMILES)	solubility as described in the package insert	water solubility: amount dissolved in 100 ml of water (in 100 ml of water)	water solubility: volume of water that dissolves 1 g
NCC1(CC(=O)O)CCCCC1 [gabapentin, 1-(aminomethyl)cyclohexaneacetic acid]	freely soluble		
CC[C@@H](C(N)=O)N1CCCC1=O [levetiracetam, (−)-(S)-α-ethyl-2-oxo-1-pyrrolidine acetamide]	very soluble	approximately 104 grams	
CCCC(CCC)C(=O)[O-].[Na+] [sodium valproate, sodium 2-propylpentanoate]			0.4 mL
COc1cccc(C2(O)CCCCC2CN(C)C)c1 (centres unmarked) [tramadol hydrochloride]			~33 mL
